Test results as given in ChEMBL document CHEMBL1140665, “Eco-friendly synthesis and study of new plant growth promoters: 3,3'-Diindolylmethane and its derivatives” (2007).

Key:
Format in all cases: functional
[1] = system: Oryza sativa; assay: Growth promoting activity in Oryza sativa assessed as root length at 1000 ppm on day 5
[2] = system: Oryza sativa; assay: Growth promoting activity in Oryza sativa assessed as shoot length at 1000 ppm on day 5
[3] = system: Oryza sativa; assay: Growth promoting activity in Oryza sativa assessed as root length at 250 ppm on day 5
[4] = system: Oryza sativa; assay: Growth promoting activity in Oryza sativa assessed as shoot length at 125 ppm on day 5
[5] = system: Oryza sativa; assay: Growth promoting activity in Oryza sativa assessed as root length at 125 ppm on day 5
[6] = system: Oryza sativa; assay: Growth promoting activity in Oryza sativa assessed as root length at 62.5 ppm on day 5
[7] = system: Oryza sativa; assay: Growth promoting activity in Oryza sativa assessed as shoot length at 31.25 ppm on day 5
[8] = system: Oryza sativa; assay: Growth promoting activity in Oryza sativa assessed as root length at 500 ppm on day 5
[9] = system: Oryza sativa; assay: Growth promoting activity in Oryza sativa assessed as root length at 31.25 ppm on day 5
[10] = system: Oryza sativa; assay: Growth promoting activity in Oryza sativa assessed as shoot length at 500 ppm on day 5
[11] = system: Oryza sativa; assay: Growth promoting activity in Oryza sativa assessed as shoot length at 250 ppm on day 5
[12] = system: Oryza sativa; assay: Growth promoting activity in Oryza sativa assessed as shoot length at 62.5 ppm on day 5

SMILES	Activity [1] [mm]	Activity [2] [mm]	Activity [3] [mm]	Activity [4] [mm]	Activity [5] [mm]	Activity [6] [mm]	Activity [7] [mm]	Activity [8] [mm]	Activity [9] [mm]	Activity [10] [mm]	Activity [11] [mm]	Activity [12] [mm]
c1ccc(-c2[nH]c3ccccc3c2Cc2c(-c3ccccc3)[nH]c3ccccc23)cc1	29.76	12.9	34.2	19.5	38.7	35.9	15.2	32.6	33.6	15.5	17.32	17.4
COc1ccc2c(c1)c(Cc1cn(C)c3ccc(OC)cc13)cn2C	20.78	7.8	26.72	13.6	30.4	28.2	9.78	23.3	25.7	9.66	11.42	11.5
Cn1c(-c2ccccc2)c(Cc2c(-c3ccccc3)n(C)c3ccccc23)c2ccccc21	25.6	10.8	30.27	17.2	34.5	31.2	13.8	28.2	29.6	13.6	15.01	15.4
Cc1[nH]c2ccccc2c1Cc1c(C)[nH]c2ccccc12	35.12	13.3	40.66	21.1	46.5	42.8	16.4	38.5	40.2	16.3	18.57	19.6
Cc1c(Cc2c(C)n(C)c3ccccc23)c2ccccc2n1C	30.72	12	35.42	18.7	39.4	36.4	14.7	33.4	34.2	14.7	16.8	16.4
Cn1cc(Cc2cn(C)c3ccc([N+](=O)[O-])cc23)c2cc([N+](=O)[O-])ccc21	12.12	5.76	18.16	11	21.4	18.9	8.87	15.2	16.2	7.82	9.56	9.96
O=C(O)Cc1c[nH]c2ccccc12 [INDOLE-3-ACETIC ACID]	–	5.28	–	10.6	20.3	18.7	8.72	14.4	15.6	7.66	–	9.81
Cn1cc(Cc2cn(C)c3ccccc23)c2ccccc21	16.72	6.1	22.52	12.2	25.4	23.5	9.2	19.7	20.4	8.37	10.3	10.7
c1ccc2c(Cc3c[nH]c4ccccc34)c[nH]c2c1 [ARUNDINE]	–	8.45	–	15.7	29.5	26.3	11.2	22.4	24.6	10.9	–	13.4
Cn1cc(Cc2cn(C)c3ccc(Br)cc23)c2cc(Br)ccc21	12.9	5.92	18.56	11.4	22.6	19.6	9.05	15.9	16.8	8.12	9.72	10.1
Brc1ccc2[nH]cc(Cc3c[nH]c4ccc(Br)cc34)c2c1	13.8	6.7	19.72	12.7	23.2	21.1	9.5	16.6	18.6	8.53	10.7	11
COc1ccc2[nH]cc(Cc3c[nH]c4ccc(OC)cc34)c2c1	23.62	11.6	29.42	17.6	33.8	30.6	13.4	26.5	28.4	13.4	15.23	15.3
